Entries after “also recorded” stand apart in the source; their conditions may differ.
How the values were obtained:
SU-DHL-4 cells = assay: Hepatocyte/lymphoma co-culture with CHOP: cancer cell death, viability, caspase-3; type: cell-based, human
Description: HPH were cultured in collagen-coated 12-well plates and pretreated with vehicle control (0.1% DMSO) or hCAR activator (1 mmol/L) for 24 hours. The wells were then separated with […] polycarbonate membrane inserts (Sigma-Aldrich). A total of 0.5×10^6 SU-DHL-4 cells suspended in supplemented Williams' Medium E were transferred into the insert chamber with a final volume of 2 mL/well. In separate coculture experiments, HPH were replaced with either WT or CAR-KO HepaRG cells. The cocultures were exposed to designated concentrations of the chemotherapy drugs in CHOP in the presence or absence of hCAR activator for various time intervals, as indicated.
(§1) Homogenate proteins from treated HPH, H9c2 or HepaRG cells were resolved on NuPAGE Novex Bis-Tris 4% to 12% gels (Life Technologies) and electrophoretically transferred onto immobilon-P polyvinylidene difluoride membranes. Membranes were incubated with specific antibodies against human CAR (Perseus Proteomics), cleaved caspase-3 (Cell Signaling Technology), or g-H2AX (Millipore), diluted 1:1,000, 1:1,000, and 1:400, respectively. b-Actin was used to normalize protein loading. Following incubation with horseradish peroxidase goat antimouse or anti-rabbit IgG antibody, membranes were developed using SuperSignal West Pico Chemiluminescent Substrate (Thermo Scientific). Western blot signals were quantified by densitometry using ImageJ software from the National Institutes of Health.
HPHs and H9c2 rat cardiomyocytes were seeded at 7.5×10^4 cells per well in 96-well plates. HPH were cultured for 24 hours before treatment with hCAR activator (1 mmol/L) or vehicle control (0.1% DMSO), followed by treatment with the chemotherapy drugs included in CHOP at a range of concentrations. Culture medium containing CHOP drugs and metabolites was exchanged between the cell types at pre-determined time points. A typical 3-[4,5-dimethylthiazol-2-yl]-2,5 diphenyl tetrazolium bromide (MTT) assay was carried out as described previously (21). Cell viability was expressed as the percentage of vehicle control (0.1% DMSO). Cocultured cells were assembled and treated as described above. The viability of the SU-DHL-4 cells was determined at selected time points with a Cellometer Auto T4 (Nexcelom Biosciences) using trypan blue exclusion.

H9c2 cells = assay: CHOP cytotoxicity in side-toxic H9c2 cells; type: cell-based, rat; settings: FIGS. 10A-10C, 11A-11F
Description: as §1
HPHs and H9c2 rat cardiomyocytes were seeded at 7.5×10^4 cells per well in 96-well plates. […] Culture medium containing CHOP drugs and metabolites was exchanged between the cell types at pre-determined time points. […] Cell viability was expressed as the percentage of vehicle control (0.1% DMSO). […] The viability of the SU-DHL-4 cells was determined at selected time points with a Cellometer Auto T4 (Nexcelom Biosciences) using trypan blue exclusion.

EL4-derived xenograft = EL4-derived xenograft in hCAR transgenic mice treated with CHOP; type: in vivo, mouse; settings: hCAR-TG mice, compared with vehicle, CITCO and CHOP controls; FIGS. 13-14
Description: The effects of the novel hCAR activator e.g. CITCO on the CHOP based anticancer therapy has been examined in EL4-derived xenograft hCAR transgenic mouse model (FIG. 12). The tumor volume reduction was measured to determine the effects of hCAR activator on the CHOP treatment upon xenograft tumor model in mouse.

Clc1ccc(-c2nc3sccn3c2/C=N/OCc2ccc(Cl)c(Cl)c2)cc1 [CITCO, (E)-6-(4-chlorophenyl)imidazo[2,1-b]thiazole-5-carbaldehyde O-(3,4-dichlorobenzyl) oxime]
effect on CHOP anticancer activity (cancer cell death) (SU-DHL-4 cells; hepatocyte/lymphoma co-culture, added to CHOP, FIGS. 10B-C): enhances CHOP-mediated cytoxicity; also recorded: potentiates the beneficial effects of CHOP in causing cancer cell death
Caspase-3 expression on addition to CHOP (SU-DHL-4 cells; lymphoma cells, FIGS. 11A-11F): induction of apoptosis protein caspase-3; also recorded: dose dependent response of Caspase-3 expression
effect on CHOP-mediated cytotoxicity in H9c2 cells (H9c2 cells): not H9c2 cells
effect on therapeutic effects of CHOP (tumor volume, tumor mass) (EL4-derived xenograft): potentiate the therapeutic effects of the CHOP regimen
